Patent publication US8415469B2, “Compounds and methods for kinase modulation, and indications therefor” (Plexxikon Inc., priority 2005, dated 2013)

Experiments:
Assay type in all cases: biochemical
[1] = biological target: T1, Met (Homo sapiens, UniProt P08581); assay: AlphaScreen kinase assay, Met; conditions: read-out: IC50, activity toward kinase Met
T1 construct: P1818.pETN6 BI-PTP MET G1056-G1364-X WT; His6 (N); made in house; host or cells: E. coli (PTP1B co-expressed)
Excerpt: (§1) AlphaScreen assay was used to screen additional kinases. The assay is similarly dependent on the phosphorylation of a peptide substrate. In this assay, an antibody that recognizes phosphorylated substrate is bound to an acceptor bead. The peptide substrate is attached to biotin, which binds to a donor head that contains streptavidin. Thus phosphorylated substrate is bound by antibody and streptavidin, bringing the donor and acceptor heads into close proximity when kinase is not inhibited. The donor produces singlet oxygen which results in emission from the acceptor when they are in close proximity. Conversely, when kinase is inhibited, the donor and acceptor beads are not associated and the emission from the acceptor is reduced.
(§2) AlphaScreen assays were done using compounds dissolved in DMSO to a concentration of 20 mM. The compounds were diluted accordingly to the desired final concentrations in each sample well, using 1:3 serial dilution for a total of 8 concentration points.

[2] = biological target: T2, Abl (Homo sapiens, UniProt P00519); assay: AlphaScreen kinase assay, Abl; conditions: read-out: activity toward kinase Abl, IC50
T2 construct: P1121. pET-SPEC BI-PTP Abl G227-V515-X; His6 (N); made in house; host or cells: E. coli (PTP1B co-expressed)
T2 sequence (P00519 with tags, fused parts or gaps): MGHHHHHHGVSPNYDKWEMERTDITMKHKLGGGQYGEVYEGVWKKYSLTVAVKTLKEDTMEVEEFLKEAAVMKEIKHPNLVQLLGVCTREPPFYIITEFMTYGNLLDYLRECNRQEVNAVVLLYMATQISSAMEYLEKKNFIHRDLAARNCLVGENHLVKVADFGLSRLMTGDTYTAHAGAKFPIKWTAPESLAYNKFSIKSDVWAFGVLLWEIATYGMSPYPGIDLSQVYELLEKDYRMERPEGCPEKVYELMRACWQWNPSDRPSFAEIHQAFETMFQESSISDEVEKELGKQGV
Excerpt: as §1, §2

[3] = biological target: T3, Src (Homo sapiens, UniProt P12931); assay: AlphaScreen kinase assay, Src; conditions: read-out: IC50, activity toward kinase Src
T3 construct: P1144. pET-N6 BI-PTP SRC V86-L536-X; made in house
T3 sequence (P12931 with tags, fused parts or gaps): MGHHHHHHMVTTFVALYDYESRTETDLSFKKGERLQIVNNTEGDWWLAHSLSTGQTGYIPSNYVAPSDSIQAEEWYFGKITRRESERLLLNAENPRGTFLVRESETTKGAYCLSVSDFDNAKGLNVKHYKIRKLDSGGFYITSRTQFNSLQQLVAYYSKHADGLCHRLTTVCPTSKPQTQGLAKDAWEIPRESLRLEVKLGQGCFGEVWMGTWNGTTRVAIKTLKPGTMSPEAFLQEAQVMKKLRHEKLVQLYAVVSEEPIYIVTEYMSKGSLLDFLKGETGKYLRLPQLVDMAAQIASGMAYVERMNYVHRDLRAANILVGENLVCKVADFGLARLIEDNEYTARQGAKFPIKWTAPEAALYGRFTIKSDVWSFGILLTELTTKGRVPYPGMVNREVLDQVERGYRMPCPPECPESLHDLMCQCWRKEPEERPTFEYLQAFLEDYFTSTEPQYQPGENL
Method: AlphaScreen assays were done using compounds dissolved in DMSO to a concentration of 20 mM. The compounds were diluted accordingly to the desired final concentrations in each sample well, using 1:3 serial dilution for a total of 8 concentration points. Plates were prepared such that each kinase reaction is 20 μl in 1× kinase buffer, 5% DMSO and 10 μM ATP. After incubation of the kinase reaction for 1 hour at room temperature, 5 μl of donor beads in stop buffer (50 mM EDTA in 1× kinase buffer) was added, the sample was mixed and incubated for 20 minutes at room temperature before adding 5 μl of acceptor beads in stop buffer. The samples were incubated for 60 minutes at room temperature and the signal per well was read on AlphaQuest reader.

[4] = biological target: T4, c-Raf-1 (Homo sapiens, UniProt P04049); assay: AlphaScreen kinase assay, c-Raf-1; conditions: read-out: IC50, activity toward kinase c-Raf-1
T4 construct: purchased Upstate Biotechnology

[5] = biological target: T5, Fak (Homo sapiens, UniProt Q05397); assay: AlphaScreen kinase assay, Fak; conditions: read-out: IC50, activity toward kinase Fak
T5 construct: P1358.pFastBacHtb FAK S411-Q686-X; His6 with pFastBacHTb leader (TEV site) (N); made in house; host or cells: Sf9 (baculovirus)

[6] = biological target: T6, B-Raf (Homo sapiens, UniProt P15056); assay: AlphaScreen kinase assay, B-Raf; conditions: read-out: IC50, activity toward kinase B-Raf
T6 construct: purchased Upstate Biotechnology
T6 sequence (P15056 whole entry): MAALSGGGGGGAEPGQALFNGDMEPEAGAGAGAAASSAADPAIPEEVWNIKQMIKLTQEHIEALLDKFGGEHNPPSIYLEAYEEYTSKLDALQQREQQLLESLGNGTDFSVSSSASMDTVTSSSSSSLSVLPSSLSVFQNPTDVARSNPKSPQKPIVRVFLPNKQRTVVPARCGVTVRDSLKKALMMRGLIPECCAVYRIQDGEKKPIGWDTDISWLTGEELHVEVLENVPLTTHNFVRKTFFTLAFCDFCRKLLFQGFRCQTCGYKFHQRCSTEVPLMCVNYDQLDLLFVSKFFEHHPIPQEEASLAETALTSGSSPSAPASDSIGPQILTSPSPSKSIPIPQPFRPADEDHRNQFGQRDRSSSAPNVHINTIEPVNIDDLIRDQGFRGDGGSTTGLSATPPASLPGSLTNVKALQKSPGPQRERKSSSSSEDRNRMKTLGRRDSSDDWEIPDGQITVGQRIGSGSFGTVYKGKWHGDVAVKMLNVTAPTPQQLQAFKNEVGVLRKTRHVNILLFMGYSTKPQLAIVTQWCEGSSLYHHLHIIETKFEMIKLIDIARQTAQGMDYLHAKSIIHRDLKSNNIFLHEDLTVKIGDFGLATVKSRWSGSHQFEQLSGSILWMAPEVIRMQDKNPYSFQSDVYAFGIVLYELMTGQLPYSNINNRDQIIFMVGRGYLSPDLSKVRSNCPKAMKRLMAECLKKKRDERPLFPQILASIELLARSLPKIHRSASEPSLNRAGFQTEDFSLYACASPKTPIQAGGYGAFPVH

[7] = biological target: T7, Jnk1 (Homo sapiens, UniProt P45983); assay: AlphaScreen kinase assay, Jnk1; conditions: read-out: IC50, activity toward kinase Jnk1
T7 construct: purchased Upstate Biotechnology
T7 sequence (P45983 whole entry): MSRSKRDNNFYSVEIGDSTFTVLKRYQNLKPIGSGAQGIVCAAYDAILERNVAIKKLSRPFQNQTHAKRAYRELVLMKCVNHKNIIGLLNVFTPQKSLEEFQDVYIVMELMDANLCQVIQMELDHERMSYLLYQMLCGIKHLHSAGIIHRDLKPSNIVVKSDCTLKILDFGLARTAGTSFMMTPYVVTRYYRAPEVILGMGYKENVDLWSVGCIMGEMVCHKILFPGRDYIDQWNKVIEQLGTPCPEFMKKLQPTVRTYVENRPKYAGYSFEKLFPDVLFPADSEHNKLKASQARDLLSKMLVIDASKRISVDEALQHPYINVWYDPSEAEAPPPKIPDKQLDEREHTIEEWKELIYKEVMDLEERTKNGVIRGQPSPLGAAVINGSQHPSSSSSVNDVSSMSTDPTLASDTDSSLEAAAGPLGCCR

[8] = biological target: T8, FGFR1 (Homo sapiens, UniProt P11362, C488A/C584S); assay: AlphaScreen kinase assay, FGFR1; conditions: read-out: IC50, activity toward kinase FGFR
T8 construct: P1351.pET N6 BI-PTP FGFR A458-E765-X C488A, C584S; made in house; host or cells: E. coli (PTP1B co-expressed)

[9] = biological target: T9, Kit (Homo sapiens, UniProt P10721); assay: AlphaScreen kinase assay, Kit; conditions: read-out: IC50, activity toward kinase Kit
T9 construct: P1332.N6 BI PTP KIT M552-K948-X COD; His6 (N); made in house; host or cells: E. coli (PTP1B co-expressed)
T9 sequence (P10721 with tags, fused parts or gaps): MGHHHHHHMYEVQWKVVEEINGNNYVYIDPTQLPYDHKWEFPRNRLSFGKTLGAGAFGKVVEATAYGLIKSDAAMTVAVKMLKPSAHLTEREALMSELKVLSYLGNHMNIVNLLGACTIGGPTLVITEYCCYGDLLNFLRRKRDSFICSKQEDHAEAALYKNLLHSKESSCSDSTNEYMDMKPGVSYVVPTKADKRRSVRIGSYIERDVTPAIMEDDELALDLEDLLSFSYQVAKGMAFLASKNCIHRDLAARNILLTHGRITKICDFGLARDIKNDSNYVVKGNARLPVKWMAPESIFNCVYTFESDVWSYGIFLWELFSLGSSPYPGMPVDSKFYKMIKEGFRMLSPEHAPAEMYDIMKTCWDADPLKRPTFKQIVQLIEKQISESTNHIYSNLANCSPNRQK

[10] = biological target: T10, Fms (Homo sapiens, UniProt P07333); assay: AlphaScreen kinase assay, Fms; conditions: read-out: IC50, activity toward kinase Fms
T10 construct: purchased Upstate Biotechnology
T10 sequence (P07333 20-972): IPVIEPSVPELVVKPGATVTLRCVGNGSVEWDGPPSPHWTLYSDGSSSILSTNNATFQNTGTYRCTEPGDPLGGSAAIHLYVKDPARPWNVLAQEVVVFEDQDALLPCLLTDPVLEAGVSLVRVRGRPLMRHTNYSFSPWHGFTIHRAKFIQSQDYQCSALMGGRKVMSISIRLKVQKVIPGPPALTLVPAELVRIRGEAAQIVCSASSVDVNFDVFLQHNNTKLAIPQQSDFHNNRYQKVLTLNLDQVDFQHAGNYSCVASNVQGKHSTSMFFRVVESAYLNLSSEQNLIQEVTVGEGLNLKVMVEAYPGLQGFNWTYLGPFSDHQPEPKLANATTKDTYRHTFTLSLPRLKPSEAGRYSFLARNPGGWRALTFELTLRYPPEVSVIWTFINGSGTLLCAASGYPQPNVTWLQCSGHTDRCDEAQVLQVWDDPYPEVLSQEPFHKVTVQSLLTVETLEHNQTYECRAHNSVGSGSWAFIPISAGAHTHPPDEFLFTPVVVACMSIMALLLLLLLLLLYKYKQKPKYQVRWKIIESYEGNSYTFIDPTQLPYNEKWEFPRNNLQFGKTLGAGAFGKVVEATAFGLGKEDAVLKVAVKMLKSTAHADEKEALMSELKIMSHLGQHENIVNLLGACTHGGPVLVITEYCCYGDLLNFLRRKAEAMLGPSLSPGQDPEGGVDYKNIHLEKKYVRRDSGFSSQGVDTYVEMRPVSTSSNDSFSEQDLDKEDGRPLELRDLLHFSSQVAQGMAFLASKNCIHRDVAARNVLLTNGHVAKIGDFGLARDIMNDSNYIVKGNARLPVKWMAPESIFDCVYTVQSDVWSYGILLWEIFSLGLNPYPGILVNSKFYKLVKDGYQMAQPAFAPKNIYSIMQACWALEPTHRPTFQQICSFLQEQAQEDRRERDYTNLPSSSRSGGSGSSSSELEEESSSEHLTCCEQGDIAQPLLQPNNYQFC

[11] = biological target: Akt3 (Homo sapiens, UniProt Q9Y243); assay: AlphaScreen kinase assay, Akt3; conditions: read-out: IC50, activity toward kinase Akt3
Summary of the method: (§3)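 AlphaScreen, biotin-peptide substrate; streptavidin donor/anti-phospho acceptor beads; decreased emission = inhibition. Cpds 20 mM DMSO stock, 1:3 x 8 conc.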

[12] = biological target: T11, Ret (Homo sapiens, UniProt P07949); assay: AlphaScreen kinase assay, Ret; conditions: read-out: IC50, activity toward kinase Ret
T11 construct: P1378.pET-SF BI-PTP RET H661-R1012 HIS; made in house
T11 sequence (P07949 with tags, fused parts or gaps): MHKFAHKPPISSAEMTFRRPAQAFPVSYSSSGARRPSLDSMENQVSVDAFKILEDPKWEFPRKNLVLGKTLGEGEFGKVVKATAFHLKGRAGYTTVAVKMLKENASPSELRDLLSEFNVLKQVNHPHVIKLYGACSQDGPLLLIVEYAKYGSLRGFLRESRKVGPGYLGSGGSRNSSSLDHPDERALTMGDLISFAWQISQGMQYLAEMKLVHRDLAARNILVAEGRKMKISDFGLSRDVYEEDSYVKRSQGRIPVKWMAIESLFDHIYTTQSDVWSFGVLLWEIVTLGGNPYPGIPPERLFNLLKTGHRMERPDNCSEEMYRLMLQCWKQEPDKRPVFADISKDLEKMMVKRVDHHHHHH

[13] = biological target: T12, Jnk3 (Homo sapiens, UniProt P53779); assay: AlphaScreen kinase assay, Jnk3; conditions: read-out: IC50, activity toward kinase Jnk3
T12 construct: purchased Upstate Biotechnology

[14] = biological target: T13, Flt1 (Homo sapiens, UniProt P17948); assay: AlphaScreen kinase assay, Flt1; conditions: read-out: IC50, activity toward kinase Flt1
T13 construct: P1826.pETN6 BI-PTP FLT1 M799-D1165-X WT; His6 (N); made in house; host or cells: E. coli (PTP1B co-expressed)
T13 sequence (P17948 with tags, fused parts or gaps): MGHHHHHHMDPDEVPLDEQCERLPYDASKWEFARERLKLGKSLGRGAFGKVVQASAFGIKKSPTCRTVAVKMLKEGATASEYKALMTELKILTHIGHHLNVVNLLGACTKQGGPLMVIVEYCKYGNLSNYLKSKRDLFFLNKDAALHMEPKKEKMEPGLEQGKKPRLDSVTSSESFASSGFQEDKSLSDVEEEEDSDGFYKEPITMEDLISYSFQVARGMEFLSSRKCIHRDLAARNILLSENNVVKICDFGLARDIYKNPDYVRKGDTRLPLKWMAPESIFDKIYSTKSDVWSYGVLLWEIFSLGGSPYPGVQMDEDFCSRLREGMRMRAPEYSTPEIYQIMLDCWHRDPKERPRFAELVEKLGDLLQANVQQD

[15] = biological target: T14, B-Raf V600E (Homo sapiens, UniProt P15056, V600E); assay: AlphaScreen kinase assay, B-Raf V600E; conditions: read-out: IC50, activity toward kinase B-Raf V600E
T14 construct: P4254. pFastBacBD-CDC37 BRAF D437-K722-X, V600E; His6 with pFastBac HT leader (TEV site) (N); made in house; host or cells: Sf9 (baculovirus; chaperone CDC37 co-expressed)
T14 sequence (P15056 with tags, fused parts or gaps V600E): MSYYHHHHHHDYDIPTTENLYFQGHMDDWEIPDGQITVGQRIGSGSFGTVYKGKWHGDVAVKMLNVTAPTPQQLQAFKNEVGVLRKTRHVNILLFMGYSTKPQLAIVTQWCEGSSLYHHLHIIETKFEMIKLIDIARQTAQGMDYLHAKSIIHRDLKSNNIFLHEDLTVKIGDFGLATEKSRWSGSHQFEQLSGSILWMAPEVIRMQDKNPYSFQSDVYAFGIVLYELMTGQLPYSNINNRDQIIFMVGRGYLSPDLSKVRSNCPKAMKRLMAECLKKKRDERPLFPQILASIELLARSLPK

[16] = biological target: T15, Zap70 (Homo sapiens, UniProt P43403); assay: AlphaScreen kinase assay, Zap70; conditions: read-out: IC50, activity toward kinase Zap70
T15 construct: P1868.pFastBac1 ZAP70 D327-G606 HIS, WT; His7 (HHHHHHH) (C); made in house
T15 sequence (P43403 with tags, fused parts or gaps): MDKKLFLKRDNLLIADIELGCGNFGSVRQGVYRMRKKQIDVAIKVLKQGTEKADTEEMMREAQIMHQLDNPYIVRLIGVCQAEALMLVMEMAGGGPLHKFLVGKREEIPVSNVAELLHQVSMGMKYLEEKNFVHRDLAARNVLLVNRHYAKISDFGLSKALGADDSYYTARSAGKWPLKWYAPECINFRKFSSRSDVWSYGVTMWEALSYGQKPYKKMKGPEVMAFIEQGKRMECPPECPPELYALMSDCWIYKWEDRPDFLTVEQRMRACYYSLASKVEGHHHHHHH
Summary of the method: as §3

[17] = biological target: T16, Pyk2 (Homo sapiens, UniProt Q14289); assay: AlphaScreen kinase assay, Pyk2; conditions: read-out: IC50, activity toward kinase Pyk2
T16 construct: purchased Upstate Biotechnology

[18] = biological target: T17, Stk6 (Homo sapiens, UniProt O14965); assay: Z'-Lyte FRET kinase assay (Invitrogen), Stk6; conditions: read-out: IC50, activity toward kinase Stk6
T17 construct: purchased Invitrogen (Carlsbad, Calif.), screening service
T17 sequence (O14965 1-403): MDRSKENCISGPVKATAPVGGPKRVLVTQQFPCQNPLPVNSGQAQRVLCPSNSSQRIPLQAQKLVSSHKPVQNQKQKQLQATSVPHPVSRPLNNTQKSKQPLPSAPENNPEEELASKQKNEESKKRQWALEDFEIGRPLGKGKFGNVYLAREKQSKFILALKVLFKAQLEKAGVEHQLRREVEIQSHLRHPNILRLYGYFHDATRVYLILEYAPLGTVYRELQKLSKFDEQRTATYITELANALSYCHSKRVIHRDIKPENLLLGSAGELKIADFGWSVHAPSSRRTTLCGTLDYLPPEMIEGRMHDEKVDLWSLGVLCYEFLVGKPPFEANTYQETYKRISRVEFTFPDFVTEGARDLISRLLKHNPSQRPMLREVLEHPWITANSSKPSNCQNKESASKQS

[19] = biological target: T18, Kdr (Homo sapiens, UniProt P35968); assay: Z'-Lyte FRET kinase assay (Invitrogen), Kdr; conditions: read-out: IC50, activity toward kinase Kdr
T18 construct: purchased Invitrogen (assay run by Invitrogen)

[20] = biological target: MAP4K4 (Homo sapiens, UniProt O95819); assay: AlphaScreen kinase assay, MAP4K4; conditions: read-out: IC50, activity toward kinase MAP4K4
MAP4K4, sequence (O95819 whole entry): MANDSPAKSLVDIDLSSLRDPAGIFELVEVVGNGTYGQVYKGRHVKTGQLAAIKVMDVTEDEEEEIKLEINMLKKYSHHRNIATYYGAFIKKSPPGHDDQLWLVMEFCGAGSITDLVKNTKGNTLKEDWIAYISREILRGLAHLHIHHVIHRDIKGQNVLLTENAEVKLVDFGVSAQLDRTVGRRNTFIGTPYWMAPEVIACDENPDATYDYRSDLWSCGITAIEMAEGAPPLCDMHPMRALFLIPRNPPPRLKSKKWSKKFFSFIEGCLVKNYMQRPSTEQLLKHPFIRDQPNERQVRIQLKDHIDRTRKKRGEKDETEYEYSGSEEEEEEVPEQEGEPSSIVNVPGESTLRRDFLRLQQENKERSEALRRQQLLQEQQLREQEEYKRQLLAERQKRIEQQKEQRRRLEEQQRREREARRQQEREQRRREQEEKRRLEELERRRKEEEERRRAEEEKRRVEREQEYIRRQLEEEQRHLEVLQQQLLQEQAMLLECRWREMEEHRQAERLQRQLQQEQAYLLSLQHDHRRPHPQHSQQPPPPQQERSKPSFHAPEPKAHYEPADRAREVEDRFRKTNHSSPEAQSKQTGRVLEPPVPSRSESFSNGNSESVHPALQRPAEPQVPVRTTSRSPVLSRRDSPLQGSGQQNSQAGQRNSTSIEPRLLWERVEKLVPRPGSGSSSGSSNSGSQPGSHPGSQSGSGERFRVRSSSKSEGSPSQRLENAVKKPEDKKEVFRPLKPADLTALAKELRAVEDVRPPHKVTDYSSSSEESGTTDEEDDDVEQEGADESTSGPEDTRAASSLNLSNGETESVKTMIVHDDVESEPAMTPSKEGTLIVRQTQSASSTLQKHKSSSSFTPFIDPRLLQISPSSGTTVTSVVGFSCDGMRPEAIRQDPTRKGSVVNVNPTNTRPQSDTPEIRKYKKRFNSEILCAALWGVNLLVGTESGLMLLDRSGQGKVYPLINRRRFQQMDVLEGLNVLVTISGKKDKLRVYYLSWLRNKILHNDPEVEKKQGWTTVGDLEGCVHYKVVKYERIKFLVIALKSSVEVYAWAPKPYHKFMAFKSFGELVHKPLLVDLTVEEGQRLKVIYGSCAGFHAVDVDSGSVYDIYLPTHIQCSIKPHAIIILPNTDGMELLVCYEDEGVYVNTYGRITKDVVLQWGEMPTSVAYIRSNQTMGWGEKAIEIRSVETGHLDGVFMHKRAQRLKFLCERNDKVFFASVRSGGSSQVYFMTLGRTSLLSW

[21] = biological target: T19, Jnk2 (Homo sapiens, UniProt P45984); assay: AlphaScreen kinase assay, Jnk2; conditions: read-out: IC50, activity toward kinase Jnk2
T19 construct: purchased Roche Protein Expression Group (Indianapolis, IN)
Summary of the method: as §3

Measured: IC50

T1 sequence (P08581 with tags, fused parts or gaps): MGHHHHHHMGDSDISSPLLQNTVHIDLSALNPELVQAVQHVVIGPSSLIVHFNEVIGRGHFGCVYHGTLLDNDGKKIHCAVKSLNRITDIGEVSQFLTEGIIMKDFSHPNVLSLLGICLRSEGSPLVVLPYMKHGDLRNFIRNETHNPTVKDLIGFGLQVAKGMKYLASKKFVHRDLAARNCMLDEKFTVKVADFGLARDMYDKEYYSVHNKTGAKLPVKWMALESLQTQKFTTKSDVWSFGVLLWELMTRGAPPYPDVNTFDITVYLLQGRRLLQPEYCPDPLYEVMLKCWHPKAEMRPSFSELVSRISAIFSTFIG

S=C(NCc1ccncc1)NCc1c[nH]c2ncccc12 [Compound P-0781]
≤ 10 µM: [1] | [2]

S=C(NCc1cccnc1)NCc1c[nH]c2ncccc12 [Compound P-1012]
≤ 10 µM: [1] | [2]

NC(=O)c1cccc(-c2cnc3[nH]cc(C(=O)c4cc(O)ccc4F)c3c2)c1 [Compound P-0037, 3-[3-(2-Fluoro-5-hydroxy-benzoyl)-1H-pyrrolo[2,3-b]pyridin-5-yl]-benzamide]
not listed: [2] | [17] | [18] | [19] | [20] | [21]
≤ 10 µM: all other assays above

COc1cccc(Cc2c[nH]c3ncc(-c4cccnc4)cc23)c1F [Compound P-0269, 3-(2-Fluoro-3-methoxy-benzyl)-5-pyridin-3-yl-1H-pyrrolo[2,3-b]pyridine]
not listed: [2] | [11] | [16]
≤ 10 µM: all other assays above

O=C(Nc1ccc(Cc2c[nH]c3ncccc23)cc1)Nc1ccc(Cl)c(C(F)(F)F)c1 [Compound P-0369]
≤ 10 µM: [4] | [6] | [17] | [8] | [19] | [9] | [10] | [12] | [1] | [20] | [15]

O=C(c1c(F)ccc(NS(=O)(=O)c2ccccc2)c1F)c1c[nH]c2ncc(-c3cccnc3)cc12 [Compound P-0685, N-[2,4-Difluoro-3-(5-pyridin-3-yl-1H-pyrrolo[2,3-b]pyridine-3-carbonyl)-phenyl]-benzenesulfonamide]
not listed: [2] | [11] | [12] | [13] | [16] | [18] | [19]
≤ 10 µM: all other assays above
